Consider 17 compounds from patent US6872805B2 (Bristol-Myers Squibb Company, priority 2000, dated 2005).

Assay [1] concerns the target HCV NS3/4A protease complex (Hepatitis C virus genotype 1a, UniProt P27958, C1454S/C1711G). The experiment in a line: Recombinant HCV NS3/4A protease complex FRET peptide assay (strain not stated). The assay is classed as biochemical. Conditions: IC50, NS3/4A protease enzyme assay, strain not stated; activity ranges.
Assay [2] has as its system HCV replicon in Huh7 cells. Briefly: HCV replicon cell-based assay. Also on record: species or system HCV strain 1B. Particulars: Hepatitis C virus, Huh-7, 96 h; HCV replicon, Huh7 cells, 4 days; activity ranges; read-out: EC50. The method, boiled down:
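Genotype 1b subgenomic replicon Huh7 cells exposed to compound 4 days at 37° C in 4% FCS, 0.5% DMSO medium. EC50 from TaqMan RT-PCR of HCV RNA, normalized to total RNA by RiboGreen; CC50 from alamar Blue fluorescence after 4 h.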
Background: In antiviral work, replicon cells carry a viral genome segment that copies itself.

A word on the IC50: it is the point on the concentration scale where inhibition reaches its midpoint. One may read the EC50 as the concentration giving half of the maximal effect.

HCV NS3/4A protease complex, sequence (P27958 1027-1711, stated change not applied): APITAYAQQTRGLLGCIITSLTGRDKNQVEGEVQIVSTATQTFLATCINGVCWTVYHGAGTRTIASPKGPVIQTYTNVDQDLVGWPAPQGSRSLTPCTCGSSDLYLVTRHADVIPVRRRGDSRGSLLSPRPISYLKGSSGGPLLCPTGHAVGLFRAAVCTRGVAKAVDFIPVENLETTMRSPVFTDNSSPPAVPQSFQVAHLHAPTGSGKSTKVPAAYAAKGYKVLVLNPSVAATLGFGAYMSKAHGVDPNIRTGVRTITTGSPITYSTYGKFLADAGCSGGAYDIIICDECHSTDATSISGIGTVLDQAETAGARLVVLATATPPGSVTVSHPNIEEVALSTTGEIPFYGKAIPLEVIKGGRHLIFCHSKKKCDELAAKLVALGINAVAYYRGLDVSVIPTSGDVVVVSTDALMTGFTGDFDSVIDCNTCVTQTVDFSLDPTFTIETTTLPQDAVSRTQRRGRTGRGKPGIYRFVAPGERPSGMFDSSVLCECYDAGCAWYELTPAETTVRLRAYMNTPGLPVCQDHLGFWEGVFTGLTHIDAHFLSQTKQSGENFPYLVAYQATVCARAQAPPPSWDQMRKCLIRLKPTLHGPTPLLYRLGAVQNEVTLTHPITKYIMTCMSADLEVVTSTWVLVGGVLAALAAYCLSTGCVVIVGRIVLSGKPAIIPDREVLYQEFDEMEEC
HCV NS3/4A protease complex, sequence (P27958 1027-1711, stated change not applied): as above

As to `C=C[C@@H]1C[C@]1(NC(=O)C1C[C@@H](Oc2cc(-c3ccccc3)nc3cc(OC)ccc23)CN1C(=O)[C@@H](NC(=O)COc1ccc(F)cc1)C(C)(C)C)C(=O)NS(=O)(=O)C1CC1` (stereo partly drawn) [Compound 109, 1-{2S-[2-(4-Fluoro-phenoxy)-acetylamino]-3,3-dimethyl-butyryl}-4R-(7-methoxy-2-phenyl-quinolin-4-yloxy)-pyrrolidine-2S-carboxylic acid (1R-cyclopropanesulfonylaminocarbonyl-2S-vinylcyclopropyl)-amide], the IC50 in assay [1] was less than 50 nM. In assay [2], the concentration giving a half-maximal response (EC50) was less than 500 nM.

For `C=C[C@@H]1C[C@]1(NC(=O)C1C[C@@H](Oc2cc(-c3ccccc3)nc3cc(OC)ccc23)CN1C(=O)[C@@H](Nc1ccncc1[N+](=O)[O-])C(C)(C)C)C(=O)NS(=O)(=O)C1CC1` (stereo partly drawn) [Compound 129, 1-[3,3-dimethyl-2S-(3-nitropyridin-4-ylamino)-butyryl]-4R-(7-methoxy-2-phenylquinolin-4-yloxy)-pyrrolidine-2S-carboxylic acid (1R-cyclopropanesulfonylaminocarbonyl-2S-vinylcyclopropyl)amide], the 50% inhibitory concentration (IC50) in assay [1] was less than 5000 nM. Also, in assay [2], the EC50 is less than 50000 nM.

In the case of `C=CC1C[C@]1(NC(=O)[C@@H]1C[C@@H](Oc2cc(-c3ccccc3)nc3cc(OC)ccc23)CN1C(=O)[C@@H](NC(=O)OC(C)(C)C)C(C)(C)C)C(=O)N[S+]([O-])C(C)(C)C` (stereo partly shown) [Compound 61], the IC50 in assay [1] is less than 500 nM. The EC50 in assay [2] is less than 5000 nM.

For `C=C[C@@H]1C[C@]1(NC(=O)C1C[C@@H](Oc2cc(-c3ccccc3)nc3cc(OC)ccc23)CN1C(=O)[C@@H](NC(=O)C(C)(C)C)C(C)(C)C)C(=O)NS(=O)(=O)C1CC1` (stereo partly drawn) [Compound 101, 1-[2S-(2,2-Dimethylpropionylamino)-3,3-dimethyl-butyryl]-4R-(7-methoxy-2-phenyl-quinolin-4-yloxy)-pyrrolidine-2S-carboxylic acid (1R-cyclo-propanesulfonylaminocarbonyl-2S-vinylcyclopropyl)-amide], the IC50 in assay [1] is less than 50 nM. For the same compound, in assay [2], the half-maximal effective concentration (EC50) is less than 500 nM.

With `C=CCC[C@](C)(NC(=O)[C@@H]1C[C@@H](Oc2cc(-c3ccccc3)nc3cc(OC)ccc23)CN1C(=O)C(NC(=O)OC(C)(C)C)C(C)(C)C)C(=O)NS(=O)(=O)c1ccccc1` (stereo partly shown) [Compound 38], the IC50 in assay [1] was less than 50 nM. In assay [2], the 50% effective concentration (EC50) was less than 50 nM.

Consider `C=CC1C[C@]1(NC(=O)C1CC(Oc2cc(-c3ccccc3)nc3cc(OC)ccc23)CN1C(=O)[C@@H](NC)C(C)(C)C)C(=O)NS(=O)(=O)C1CC1` (stereo partly drawn) [Compound 132, (3,3-dimethyl-2-methylamino-butyryl)-4R-(7-methoxy-2-phenyl-quinolin-4-yloxy)-pyrrolidine-2S-carboxylic acid (1R-cyclopropanesulfonylaminocarbonyl-2S-vinyl-cyclo-propyl)amide], for which the IC50 in assay [1] is less than 50 nM. For the same compound, the EC50 in assay [2] was less than 5000 nM.

As to `C=CCC[C@](C)(NC(=O)[C@@H]1C[C@@H](Oc2cc(-c3ccccc3)nc3cc(OC)ccc23)CN1C(=O)C(NC(=O)OC(C)(C)C)C(C)(C)C)C(=O)NS(=O)(=O)c1ccc(F)c(Cl)c1` (stereo partly shown) [Compound 45], the IC50 in assay [1] is less than 50 nM. For the same compound, the EC50 in assay [2] was less than 500 nM.

`C=CC1C[C@]1(NC(=O)[C@@H]1C[C@@H](Oc2cc(-c3ccccc3)nc3cc(OC)ccc23)CN1C(=O)[C@@H](NC(=O)OC(C)(C)C)C(C)(C)C)C(=O)NS(=O)(=O)CC` (stereo partly shown) [Compound 25]: the concentration for half-maximal inhibition (IC50) in assay [1] is less than 50 nM. Besides, the EC50 in assay [2] was less than 500 nM.

For `C=CC1C[C@]1(NC(=O)[C@@H]1C[C@@H](Oc2cc(-c3ccccc3)nc3cc(OC)ccc23)CN1C(=O)[C@@H](NC(=O)OC(C)(C)C)C(C)(C)C)C(=O)NS(=O)(=O)CCC` (stereo partly shown) [Compound 26], the IC50 in assay [1] is less than 50 nM. In addition, the concentration giving a half-maximal response (EC50) in assay [2] is less than 500 nM.

`C=CC1C[C@]1(NC(=O)[C@@H]1C[C@@H](Oc2cc(-c3ccccc3)nc3cc(OC)ccc23)CN1C(=O)[C@@H](NC(=O)OC(C)(C)C)C(C)(C)C)C(=O)NS(=O)(=O)c1ccccc1[N+](=O)[O-]` (stereo partly shown) [Compound 51]: the half-maximal inhibitory concentration (IC50) in assay [1] is less than 50 nM. Moreover, the EC50 in assay [2] is less than 500 nM.

For the compound `C=CC1C[C@]1(NC(=O)[C@@H]1C[C@@H](Oc2cc(-c3ccccc3)nc3cc(OC)ccc23)CN1C(=O)[C@@H](NC(=O)OC(C)(C)C)C(C)C)C(=O)NS(=O)(=O)C1CC1` (stereo partly shown) [Compound 31], the IC50 in assay [1] is less than 50 nM. Also, the 50% effective concentration (EC50) in assay [2] is less than 50 nM.

As for `C=CCC[C@](C)(NC(=O)[C@@H]1C[C@@H](Oc2cc(-c3ccccc3)nc3cc(OC)ccc23)CN1C(=O)C(NC(=O)OC(C)(C)C)C(C)(C)C)C(=O)NS(=O)(=O)c1cccc(C)c1` (stereo partly shown) [Compound 36], the 50% inhibitory concentration (IC50) in assay [1] is less than 50 nM. In assay [2], the EC50 is less than 500 nM.

Take `C=C[C@@H]1C[C@]1(NC(=O)C1C[C@@H](Oc2cc(-c3ccccc3)nc3cc(OC)ccc23)CN1C(=O)[C@@H](NC(=O)c1ccco1)C(C)(C)C)C(=O)NS(=O)(=O)C1CC1` (stereo partly drawn) [Compound 110, 1-{2S-[(furan-2-carbonyl)-amino]-3,3-dimethyl-butyryl}-4R-(7-methoxy-2-phenyl-quinolin-4-yloxy)-pyrrolidine-2S-carboxylic acid (1R-cyclopropanesulfonylaminocarbonyl-2S-vinyl-cyclopropyl)-amide]: in assay [1], the half-inhibitory concentration (IC50) was less than 50 nM. Further, the half-maximal effective concentration (EC50) in assay [2] is less than 500 nM.

As to `COc1ccc2c(O[C@@H]3C[C@@H](C(=O)NC4(C(=O)NS(=O)(=O)C5CC5)CCC4)N(C(=O)[C@@H](NC(=O)OC(C)(C)C)C(C)(C)C)C3)cc(-c3ccccc3)nc2c1` [Compound 22], the half-maximal inhibitory concentration (IC50) in assay [1] was less than 50 nM. Also, the concentration for a half-maximal effect (EC50) in assay [2] is less than 500 nM.

Regarding `C=C[C@@H]1C[C@]1(NC(=O)C1C[C@@H](Oc2cc(-c3ccccc3)nc3cc(OC)ccc23)CN1C(=O)[C@@H](NC(=O)CCC(=O)O)C(C)(C)C)C(=O)NS(=O)(=O)C1CC1` (stereo partly drawn) [Compound 100, N-{1S-[2S-(1R-cyclopropanesulfonylaminocarbonyl-2S-vinyl-cyclopropylcarbamoyl)-4R-(7-methoxy-2-phenyl-quinolin-4-yloxy)-pyrrolidine-1-carbonyl]-2,2-dimethyl-propyl}-succinamic acid], in assay [1], the IC50 is less than 50 nM. For the same compound, in assay [2], the concentration for a half-maximal effect (EC50) is less than 500 nM.

Consider `CCC1C[C@]1(NC(=O)C1C[C@@H](Oc2cc(-c3ccccc3)nc3cc(OC)ccc23)CN1C(=O)[C@@H](NC(=O)OCCF)C(C)C)C(=O)NS(=O)(=O)C1CC1` (stereo partly shown) [Compound 9], for which, in assay [1], the IC50 is less than 50 nM. The concentration giving a half-maximal response (EC50) in assay [2] was less than 500 nM.

Take `C=CC1C[C@]1(NC(=O)[C@@H]1C[C@@H](Oc2cc(-c3ccccc3)nc3cc(OC)ccc23)CN1C(=O)[C@H](CC(C)C)NC(=O)OC(C)(C)C)C(=O)NS(=O)(=O)C1CC1` (stereo partly shown) [Compound 33]: the IC50 in assay [1] was less than 50 nM. Moreover, the EC50 in assay [2] is less than 50 nM.
